We go through one compound from patent US6451353B1 (priority 1997, dated 2002).

In one series the test system is cervical carcinoma U14. Put plainly: Inhibiting effect on mouse cervical carcinoma U14. As to conditions: Table 13, ICR mice; 5-Fu 5 mg/kg/d i.p. × 9. It is filed as in vivo. As for the experimental part:
Healthy Kunming and ICR mice with a body weight of 18-22 g. each were obtained from the breeding center of Sichuan Institute of Antibiotic Industry, Chengdu, Sichuan Province, P. R. China. Both male and female mice were used in the experiment. Uterine carcinoma U14 was obtained from the Division of Pharmacology, Sichuan Institute of Antibiotic Industry, Chengdu, Sichuan Province, P. R. China. […] The experiment was carried out in vivo according to “Procedures of in vivo Screening of Antineoplastic Drugs” established in P. R. China in 1978.

In series [1] the test system is Sarcoma 180. Put plainly: Inhibiting effect on mouse sarcoma 180. The class given is in vivo. As to conditions: ICR mice; 5-Fu 5 mg/kg/d i.p. × 12. Here is the method: Healthy Kunming and ICR mice with a body weight of 18-22 g. each were obtained from the breeding center of Sichuan Institute of Antibiotic Industry, Chengdu, Sichuan Province, P. R. China. Both male and female mice were used in the experiment. Sarcoma 180 was obtained from the Division of Pharmacology, Sichuan Institute of Antibiotic Industry, Chengdu, Sichuan Province, P. R. China. […] The experiment was carried out in vivo according to “Procedures of in vivo Screening of Antineoplastic Drugs” established in P. R. China in 1978.

The test system of series [2] is Sarcoma 180. Description: Combination with 5-fluorouracil and 60Co gamma rays on mouse sarcoma 180. It is filed as in vivo. As to conditions: Kunming mice, Fagopyrum Composition 100 mg/kg p.o. × 10, 5-FU 5 mg/kg i.p. × 10, γ 300 rad × 1. Here is the method: 60 Kunming mice were obtained from the breeding center of Chengdu Institute of Biological Products, the Ministry of Health, Chengdu, Sichuan Province, P. R. China.
Sarcoma 180 was obtained from the Division of Pharmacology, Sichuan Institute of Antibiotic Industry, Chengdu, Sichuan Province, P. R. China. The tumor line had been passed on several times in Kunming mice.
The drug was prepared by Nantong Pharmaceuticals, Nantong, Jiangsu Province, P. R. China.
Inoculation of tumor line and evaluation of therapeutic efficacy were performed according to “Procedures of in vivo Screening of Antineoplastic Drugs” established in P. R. China in 1978.
Sixty mice were divided into 6 groups, 10 mice for each group. Group 1 was the control group wherein the mice were treated only by saline. Groups 2 to 6 were treatment groups using different therapies. […] Group 3 was treated with 5-Fluorouracil. Group 4 was treated with ^60Co irradiation. […] Result of each group was then calculated and compared.

A further series has as its system Lewis lung carcinoma. Put plainly: Inhibiting effect on Lewis lung carcinoma. It is filed as in vivo, mice. The note with it: Table 9; 5-Fu 5 mg/kg/d i.p. × 10. As for the experimental part: Healthy C57BL/6N mice with a body weight of 18-22 g. each were obtained from the breeding center of Sichuan Institute of Antibiotic Industry, Chengdu, Sichuan Province, P. R. China. Both male and female mice were used in the experiment. Lewis lung carcinoma was obtained from the Division of Pharmacology, Sichuan Institute of Antibiotic Industry, Chengdu, Sichuan Province, P. R. China. […] The experiment was carried out in vivo according to “Procedures of in vivo Screening of Antineoplastic Drugs” established in P. R. China in 1978.

The test system of another series is Tumor. Description: Tumor-inhibiting rates of extracts obtained with different solvents. The class given is in vivo, mice. The note with it: 5-FU 10 mg/kg.

On to `O=c1[nH]cc(F)c(=O)[nH]1` [5-FU, 5-Fluorouracil], for which the “Average Tumor Weight (x ± SD)” value with cervical carcinoma U14 was determined as 1.27 ± 0.37 g; in the series with Sarcoma 180 [1], 0.49 ± 0.25 g; with Lewis lung carcinoma it was 0.74 ± 0.49 g. Further, the “Change in Mean Value of Body Weight” value is recorded as “+3.93 g” in the series on cervical carcinoma U14, “+2.01 g” in the series with Sarcoma 180 [1] and “+0.4 g” with Lewis lung carcinoma. The “Tumor Inhibiting Rate” value was 35.53% with cervical carcinoma U14, 51.49% in the series on Sarcoma 180 [1], 47.8% in the series with Sarcoma 180 [2] and 52.26% in the series on Lewis lung carcinoma. Besides, the “Tumor Weight” value with Sarcoma 180 [2] (saline control 1.36) stood at 0.71 g. Moreover, the “Tumor-inhibiting Rate” value in the series on Tumor worked out at 31.37%.
